From patent publication US6919363B2, “Aryl substituted pyrazoles, triazoles and tetrazoles, and the use thereof” (Euro-Celtique S.A., priority 2000, dated 2005) come the findings set out here.

Read-outs that look alike come from different tables or passages of the source.

For data set [1], the target named is rBIIA isoform of Na+ channels (Rattus norvegicus, UniProt P04775). Nature of the data set: electrophysiological assay, patch-clamp recordings of voltage-sensitive Na+ currents in HEK-293 cells. In kind it is cell-based. The note with it: rBIIA isoform of sodium channel. As to the method: Cell preparation: HEK-293 (NaIIA-B2) cell line stably expressing the rBIIA isoform of Na^+ channels is established in-house. The cells are cultured using standard techniques, as described previously (Verdoorn, T. A, et al., Neuron 4:919-928 (1990)). For electrophysiology, cells are plated onto poly-D-lysine pre-coated Cellware 35 mm Petri dishes (BIOCOAT, Becton Dickinson) at a density of ˜10^4 cells/dish on the day of re-seeding from confluent cultures. Our experience has been that cells are suitable for recordings for 2-3 days after plating.
Patch-clamp recordings of voltage-sensitive Na^+ currents: Whole-cell voltage-clamp recordings are made using conventional patch-clamp techniques (Hamill et al., Pfluegers Arch. 391:85-100 (1981)) with an Axopatch 200A amplifier (Axon Instruments, Foster City, Calif.). The recording chamber is continuously superfused with the external solution (150 mM NaCl, 5.4 mM KCl, 1.8 mM CaCl2, 1 mM MgCl2, 10 mM HEPES, 10 mM glucose, pH 7.4 adjusted with NaOH, osmolality ˜320 mmol/kg) at a speed of about 1 mL/min. […] Currents are recorded at room temperature (22-25° C.), filtered at 3 kHz with an active 8-pole Bessel filter (Frequency Devices, Haverhill, Mass.), digitized at 10-50 μs intervals, and stored using Digidata 1200 analog/digital interface with Pclamp6/Clampex software (Axon Instruments). […]

For data set [2], the system named is maximal electroshock-induced seizures (MES). As to the kind of experiment: maximum electroshock seizure test (MES), anticonvulsant activity. In kind it is in vivo, mouse. The source says: The compounds of the present invention may be tested for in vivo anticonvulsant activity after i.v., p.o. or i.p. injection using a number of anticonvulsant tests in mice, including the maximum electroshock seizure test (MES). Maximum electroshock seizures are induced in male NSA mice weighing between 15-20 g and male Sprague-Dawley rats weighing between 200-225 g by application of current (50 mA, 60 pulses/sec, 0.8 msec pulse width, 1 sec duration, D.C., mice; 99 mA, 125 pulses/sec, 0.8 msec pulse width, 2 sec duration, D.C., rats) using a Ugo Basile ECT device (Model 7801). Mice are restrained by gripping the loose skin on their dorsal surface and saline-coated corneal electrodes are held lightly against the two corneae. Rats are allowed free movement on the bench top and ear-clip electrodes are used. Current is applied and animals are observed for a period of up to 30 seconds for the occurrence of a tonic hindlimb extensor response. A tonic seizure is defined as a hindlimb extension in excess of 90 degrees from the plane of the body. Results are treated in a quantal manner.
The ability of compounds of the present invention to block maximal electroshock-induced seizures (MES) is determined as described earlier.
A compound of the present invention is administered p.o. to mice 30 minutes before the test procedure.

Where [3] appears, read: iv, mouse, i.v., read-out: MES i.v. ED50.

rBIIA isoform of Na+ channels, sequence (P04775 whole entry, canonical isoform): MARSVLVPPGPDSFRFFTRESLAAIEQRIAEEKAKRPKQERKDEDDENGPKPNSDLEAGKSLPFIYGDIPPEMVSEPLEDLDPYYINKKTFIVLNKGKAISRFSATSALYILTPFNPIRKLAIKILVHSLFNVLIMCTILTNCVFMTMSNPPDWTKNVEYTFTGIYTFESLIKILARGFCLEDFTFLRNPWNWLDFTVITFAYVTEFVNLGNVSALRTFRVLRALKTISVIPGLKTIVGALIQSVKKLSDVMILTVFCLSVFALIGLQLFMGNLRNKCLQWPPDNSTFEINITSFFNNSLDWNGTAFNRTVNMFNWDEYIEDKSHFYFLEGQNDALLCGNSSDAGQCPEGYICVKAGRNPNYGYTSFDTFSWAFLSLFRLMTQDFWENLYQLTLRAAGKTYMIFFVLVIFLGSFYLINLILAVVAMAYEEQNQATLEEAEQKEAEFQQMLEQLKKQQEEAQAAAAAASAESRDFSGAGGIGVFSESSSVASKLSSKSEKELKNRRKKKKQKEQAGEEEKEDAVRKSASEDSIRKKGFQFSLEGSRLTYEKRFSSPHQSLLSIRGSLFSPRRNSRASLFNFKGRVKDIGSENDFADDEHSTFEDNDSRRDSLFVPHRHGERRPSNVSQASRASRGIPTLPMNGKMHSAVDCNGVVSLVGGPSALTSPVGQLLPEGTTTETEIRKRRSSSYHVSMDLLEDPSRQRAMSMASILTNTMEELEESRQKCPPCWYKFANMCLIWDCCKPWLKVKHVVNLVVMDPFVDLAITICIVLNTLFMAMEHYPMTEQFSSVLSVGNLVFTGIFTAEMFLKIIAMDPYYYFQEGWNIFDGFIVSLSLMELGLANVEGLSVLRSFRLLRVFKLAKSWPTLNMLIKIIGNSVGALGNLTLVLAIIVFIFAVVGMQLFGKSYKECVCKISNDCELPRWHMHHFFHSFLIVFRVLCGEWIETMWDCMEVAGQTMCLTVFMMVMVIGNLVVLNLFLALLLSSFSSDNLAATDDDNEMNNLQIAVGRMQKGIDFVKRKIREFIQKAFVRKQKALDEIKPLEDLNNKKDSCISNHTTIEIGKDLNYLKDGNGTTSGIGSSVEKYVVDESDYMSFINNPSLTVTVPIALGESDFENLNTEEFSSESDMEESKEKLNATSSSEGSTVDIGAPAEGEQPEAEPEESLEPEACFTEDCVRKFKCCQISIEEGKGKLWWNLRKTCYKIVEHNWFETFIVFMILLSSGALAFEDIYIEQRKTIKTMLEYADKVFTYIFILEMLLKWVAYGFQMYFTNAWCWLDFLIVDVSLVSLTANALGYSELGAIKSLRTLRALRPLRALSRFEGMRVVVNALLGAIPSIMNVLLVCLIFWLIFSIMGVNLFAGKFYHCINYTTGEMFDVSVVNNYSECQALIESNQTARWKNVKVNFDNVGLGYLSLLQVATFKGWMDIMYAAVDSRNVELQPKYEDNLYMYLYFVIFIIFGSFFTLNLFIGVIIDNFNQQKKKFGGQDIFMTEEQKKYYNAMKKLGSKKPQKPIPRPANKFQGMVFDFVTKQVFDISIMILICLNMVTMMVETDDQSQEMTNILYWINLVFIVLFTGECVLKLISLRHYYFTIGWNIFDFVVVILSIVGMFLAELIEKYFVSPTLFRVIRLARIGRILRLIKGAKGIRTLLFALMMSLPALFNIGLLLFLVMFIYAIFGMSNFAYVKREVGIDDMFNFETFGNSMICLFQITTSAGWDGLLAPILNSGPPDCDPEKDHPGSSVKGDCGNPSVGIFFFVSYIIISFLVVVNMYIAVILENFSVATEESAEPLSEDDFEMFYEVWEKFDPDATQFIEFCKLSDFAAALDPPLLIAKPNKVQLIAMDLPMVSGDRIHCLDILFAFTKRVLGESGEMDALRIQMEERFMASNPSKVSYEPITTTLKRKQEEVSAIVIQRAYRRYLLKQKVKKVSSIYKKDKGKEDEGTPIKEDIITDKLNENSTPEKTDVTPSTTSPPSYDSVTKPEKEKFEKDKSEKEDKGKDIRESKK

The term Ki denotes a dissociation constant, usually derived from enzyme kinetics or from competition with a known ligand. Lower therefore signals tighter binding. What is called melting point is the temperature of the solid-liquid transition. In general, ED50 refers to the midpoint of the dose-response relation. Compound `NC(=O)c1ccn(-c2ccc(Oc3ccccc3)cc2)n1` [1-(4-Phenoxyphenyl)-1H-pyrazole-3-carboxamide] came in with a melting point of 165 to 167 °C. Also, affinity in data set [1] was put at a Ki of 350 nM. Besides, in data set [2] (setting [3]), the ED50 amounted to 0.7 mg/kg.
`NC(=O)c1ccnn1-c1ccc(Oc2ccccc2)cc1` [1-(4-phenoxyphenyl)-1H-pyrazole-5-carboxamide] returned a melting point of 142 to 144 °C. Further, the median effective dose (ED50) in data set [2] (setting [3]) is 10 mg/kg.
Consider `O=[N+]([O-])c1ccc(Oc2ccc(-n3cncn3)cc2)cc1` [1-[4-(4-Nitrophenoxy)phenyl]-1H-[1,2,4]triazole], for which the ED50 in data set [2] (Mus musculus, po, mice, 30 minutes before the test procedure, read-out: MES po ED50) is 6.6 mg/kg.
